{"source": "paper PMC9298260", "about": "“An Immunomodulatory Peptide Dendrimer Inspired from Glatiramer Acetate” (Angewandte Chemie (International Ed. in English), 2021)", "key": {"[1]": {"system": "IL-1Ra release from human primary monocytes", "test": "IL-1Ra release from human primary monocytes, immunoassay (ELISA) of supernatants", "type": "cell-based", "set-up": "key: +: Ability to induce IL‐1Ra on primary monocytes after 48 h of incubation in the presence of 25–50 μg mL^−1 compound; Ability to induce IL‐1Ra on primary monocytes after 48 h of incubation in the presence of 25–50 μg mL^−1 compound", "conditions": "Table 1, 48 h, 25–50 μg mL^−1 compound", "protocol": "As an activity screen we focused on interleukin‐1 receptor antagonist (IL‐1Ra), a cytokine released by circulating antigen presenting cells (APC) in response to GA.[15, 35] […] To test our dendrimers, we quantified by immunoassay the release of IL‐1Ra from human primary monocytes of healthy donors, an easily accessible type of APC, stimulated or not by addition of lipopolysaccharide (LPS), which in our hands provided a reliable read‐out.[15] We tested at defined weight/volume (25 and 50 μg mL^−1 compound as typically reported for GA)[15, 35] to account for a possible activity increase with MW as often observed with dendrimers when using molarity. In the initial screen the levels of secreted IL‐1Ra remained below 1 ng mL^−1 for all the smaller test compounds as well as with the linear peptide analogs of GA.\nFigure 2 Cytokine level of IL‐1Ra in supernatants of primary human monocytes of healthy donors treated with peptide dendrimers, evaluated by ELISA (bars, left vertical axis) and mRNA levels (▴, right vertical axis). […] For mRNA levels evaluation, 2×10^6 cells 3 mL^−1 in 6 well plates were incubated with 50 μg mL^−1 dendrimer or GA for 18 h. […]\nEnzyme-linked immunosorbent assay (ELISA)\nMonocytes (5×10^4 cells/200 μL well; 96-well plates) were preincubated for 1 h with or without compounds in RPMI-1640 medium supplemented with 10% heat-inactivated FBS, 50 μg/mL streptomycin, 50 U/mL penicillin, 2 mM L-glutamine, and 5 μg/mL polymyxin B sulfate and then cultured for 48 h in the presence or absence of LPS (100 ng/mL) (2). The production of IL-1Ra was measured in culture supernatants by commercially available enzyme immunoassay according to manufacture protocol.\nFigure S2. Cytokine level of IL-1Ra in supernatants of monocytes for active dendrimers and analogues evaluated by ELISA assay on primary human monocytes of healthy donors. 5×10^4 cells/200 µL in 96 well plates, were incubated with dendrimers or GA as a control for 48 h in presence or absence of LPS (100 ng/mL), in a range of concentrations (50-25 µg/mL) (mean ± SD, n = 2 different experiments). The results are present as the difference between each sample and the non-treated sample to take into account the difference between base line for each donor.\nFigure S3. Cytokine level of IL-1Ra in supernatants of monocytes for active dendrimers and […]\npresence or absence of LPS (100 ng/mL), in a range of concentrations (100-12.5 µg/mL) (mean ± SD, n = 3 different experiments). […]"}, "lymphocytes": {"system": "lymphocytes", "test": "IL-1Ra in supernatants of lymphocytes (rest of leukocytes after Percoll), ELISA", "type": "cell-based, human", "conditions": "rest of leukocytes after Percoll gradient, 50-25 µg/mL, 48 h, n = 2", "protocol": "Similar donor dependent responses of cytokine release to GA have been reported for IL‐27.[38]\nFigure S3. Cytokine level of IL-1Ra in supernatants of monocytes for active dendrimers and analogues evaluated by ELISA assay on primary human monocytes of healthy donors. 5×10^4 cells/200 µL in 96 well plates, were incubated with dendrimers or GA as a control for 48 h in presence or absence of LPS (100 ng/mL), in a range of concentrations (100-12.5 µg/mL) (mean ± SD, n = 3 different experiments).\nFigure S4. Cytokine level of IL-1Ra in supernatants of monocytes enriched fraction (a) and the rest of leukocytes (b) for active dendrimers and analogues evaluated by ELISA assay.\nMonocytes fraction was separated from whole PBMC by Percoll density gradient centrifugation. 5×10^4 cells/200 µL in 96 well plates were incubated with dendrimers or GA (50-25 µg/mL) as a control for 48 h (mean ± SD, n = 2 different experiments). […]"}, "[2]": {"test": "Circular dichroism spectroscopy", "type": "physicochemical", "conditions": "100 μg/mL, 8 mM phosphate buffer pH 7.2/7.4", "protocol": "In terms of stereochemistry, activity was lost with D‐enantiomers D‐1 and D‐4, similar to the inactivity reported for D‐enantiomeric GA.[2]\nCircular dichroism (CD) experiments were measured on a Jasco J-715 Spectropolarimeter. All the experiments were performed using Hellma Suprasil 110-QS 0.1 cm cuvettes. For each peptide, the measurements were performed in phosphate buffer (PB, pH=7.2, 8 mM) and in the presence of 5 mM dodecylphosphocholine. The concentration of the peptides was 100.0 μg/mL and each sample was measured using one accumulation. The scan rate was 10 nm/min, pitch 0.5 nm, response 16 sec and bandwidth 1.0 nm. The nitrogen flow was kept >8.5 L/min. After each measurement, the cuvettes were washed successively with 1 M HCl, milli-Q H2O and PB buffer. The baseline was recorded under the same conditions and subtracted manually.\nFigure S12. Circular dichroism spectra of GA, 1 and 4 (100 μg/mL) in 8 mM phosphate buffer at pH 7.4 (a) or in presence of 5 mM dodecylphosphocholine. Percentage of α-helix and β- sheet was processed by Dichroweb using the CONTIN analysis program and reference set 3.\n(1 picture or pasted object on this page, not shown here)"}, "[3]": {"conditions": "cited from earlier work"}}}
{"substance": "Glatiramer acetate [GA, reference compound]", "values": [{"measurement": "Act. (ability to induce IL-1Ra)", "setting": "[1]", "value": "+"}, {"measurement": "induction of IL-1Ra in lymphocytes", "setting": "lymphocytes", "value": "did not occur"}, {"measurement": "conformation by CD spectra", "setting": "[2]", "value": "α‐helical"}, {"measurement": "crossing of the BBB", "setting": "[3]", "value": "does not cross the BBB"}]}
